We go through one molecule from patent US20230398125A1, “TREATING HEPATITIS” (Albireo AB, priority 2022, published 2023).

Experiment [1] relates to HBV (HepG2 AD38 genotype D). The experiment in a line: Combination of Compound 1 with tenofovir in HBV-infected primary human hepatocytes (MacSynergy II). The class given is cell-based, hepatitis B virus. The note with it: summary of studies. On the procedure: In two sets of experiments, the effect of combining Compound 1 with tenofovir was studied. Effects of the drug combination were calculated based on the activity of the two compounds when tested alone. The expected additive antiviral protection (based on the dose response curves of the individual agents used alone) was subtracted from the experimentally determined antiviral activity at each combination concentration resulting in a positive value (synergy), a negative value (antagonism), or zero (additivity). […] The results of the combination assays were expressed as a synergy volume μM2% calculated at the 95% confidence interval using the MacSynergy II template.
For these studies, synergy was defined as drug combinations yielding synergy volumes greater than 50 μM2%. Slightly synergistic activity and highly synergistic activity have been defined as yielding synergy volumes of […] and >100 μM2%, respectively.
Synergy volumes between −50 and 50 μM2% were considered additive and synergy volumes less than −50 μM2% were considered antagonistic.

Experiment [2] has as its target T1, ASBT (Homo sapiens, UniProt Q12908).
T1 construct: expressed in transfected cells
T1 sequence (Q12908 1-348): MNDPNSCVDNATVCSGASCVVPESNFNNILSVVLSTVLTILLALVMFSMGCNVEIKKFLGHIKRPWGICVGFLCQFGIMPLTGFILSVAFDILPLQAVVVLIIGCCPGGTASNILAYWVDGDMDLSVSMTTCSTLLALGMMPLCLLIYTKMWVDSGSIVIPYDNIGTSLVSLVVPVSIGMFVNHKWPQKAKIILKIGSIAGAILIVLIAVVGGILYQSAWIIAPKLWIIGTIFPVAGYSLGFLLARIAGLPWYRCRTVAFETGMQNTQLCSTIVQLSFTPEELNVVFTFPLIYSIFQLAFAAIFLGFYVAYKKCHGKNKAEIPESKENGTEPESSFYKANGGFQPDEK
The experiment in a line: [3H]taurocholate uptake, apparent Ki for ASBT. The class given is cell-based. The note with it: read-out: inhibitory constant (Ki) for ASBT.

For experiment [3], the target named is T2, Human NTCP (Homo sapiens, UniProt Q14973).
T2 construct: expressed in transfected cells; peptide purchased from Pharmaron
T2 sequence (Q14973 1-349): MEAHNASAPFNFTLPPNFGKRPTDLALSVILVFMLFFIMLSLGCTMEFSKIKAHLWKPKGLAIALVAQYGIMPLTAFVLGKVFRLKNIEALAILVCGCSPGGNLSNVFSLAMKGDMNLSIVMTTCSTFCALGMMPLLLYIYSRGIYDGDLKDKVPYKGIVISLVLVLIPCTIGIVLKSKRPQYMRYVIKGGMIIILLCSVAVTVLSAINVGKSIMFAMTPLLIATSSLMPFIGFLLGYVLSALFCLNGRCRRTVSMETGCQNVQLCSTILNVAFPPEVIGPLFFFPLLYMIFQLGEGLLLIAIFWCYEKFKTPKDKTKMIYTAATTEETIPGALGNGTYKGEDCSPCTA
As to the kind of experiment: [3H]TC transport in NTCP-HEK293 cells. The note with it: read-out: IC50 [3H]taurocholic acid uptake. The class given is cell-based. The protocol:
Human embryonic kidney (HEK293) cells were stably transfected with human NTCP, C-terminally tagged with the FLAG epitope (here referred to as NTCP-HEK293 cells). Cells were maintained at 37° C., 5% CO2 and 95% humidity in DMEM/F-12 medium (Thermo Fisher Scientific, Waltham, Mass., USA) supplemented with 10% fetal calf serum (Sigma-Aldrich, St. Louis, Mo., USA), 4 mM L-glutamine, and penicillin/streptomycin. HepG2 cells stably transfected with NTCP-FLAG (here referred to as NTCP-HepG2) were cultured under the same conditions in DMEM with all supplements listed above, except for L-glutamine. […]
Bile acid transport measurements were performed in the NTCP-HEK293 cells with tritium-labelled taurocholic acid (here referred to as [^3H]TC) (20 Ci/mmol, 0.09 mCi/mL, Perkin Elmer, Waltham, USA). […] Cell-associated radioactivity of [^3H]TC or [^3H]preS1 was quantified by liquid scintillation counting in a Packard Microplate Scintillation Counter TopCount NXT (Packard Instrument Company, Meriden, USA). Transport rates and [^3H]preS1 binding were determined in counts per minute (cpm). The mean of the 0% control was subtracted and the net [^3H]TC transport rates and net [^3H]preS1 binding rates, respectively, were expressed as % of control. IC50 values were calculated from quadruplicate determinations by GraphPad Prism 6 (GraphPad, San Diego, Calif., USA). […]

Consider `CCCCC1CN(c2ccccc2)c2cc(SC)c(O/C=C(\F)C(=O)O)cc2S(=O)(=O)N1C` (stereo not drawn) [Compound 1, (Z)-3-((3-butyl-2-methyl-7-(methylthio)-1,1-dioxido-5-phenyl-2,3,4,5-tetrahydro-1,2,5-benzothiadiazepin-8-yl)oxy)-2-fluoroacrylic acid], for which the “antiviral effect when given together with tenofovir disoproxil fumarate” value in experiment [1] is recorded as “additive”. For the same molecule, the Ki in experiment [2] was found to be 2.41 µM. Moreover, the IC50 in experiment [3] was found to be 0.186 µM.
